Literature values as cited in patent publication US20120322767A1, “FORMULATIONS OF BISPHOSPHONATES AND VITAMIN D SUIUTABLE FOR INTERMITTENT INTRAMUSCULAR AND SUBCUTANEOUS ADMINISTRATION” (priority 2009, published 2012).

Columns and labels:
[1] = man, oral, 100,000 IU, maintained for two months
[2] = humans, ratio of urinary or plasma concentrations (AUC) after intravenous and oral administration

Oral bioavailability [2] | Compound | Serum levels of calcidiol [1]
– | vitamin D | > 0.08 µM
3-7% | CC(O)(P(=O)(O)O)P(=O)(O)O [etidronate] | –
1-2% | O=P(O)(O)C(Cl)(Cl)P(=O)(O)O [clodronate] | –
~0.3% | NCCC(O)(P(=O)(O)O)P(=O)(O)O [pamidronate] | –
